Drawing on ChEMBL document CHEMBL6074715, “Discovery of pyridine-based derivatives as FLT3 inhibitors for the treatment of acute myeloid leukemia” (Eur J Med Chem, 2025), this text covers inhibition for 1 compound.

For this assay, the target named is Mitogen-activated protein kinase 1 (Homo sapiens) (UniProt P28482). The assay can be described thus: Inhibition of human MAPK1 at 1 uM by Eurofins kinase assay.

Active and inactive are the calls of the source. No cut-off for these calls is given here.

Sequence of Mitogen-activated protein kinase 1 (Homo sapiens) (P28482 whole entry): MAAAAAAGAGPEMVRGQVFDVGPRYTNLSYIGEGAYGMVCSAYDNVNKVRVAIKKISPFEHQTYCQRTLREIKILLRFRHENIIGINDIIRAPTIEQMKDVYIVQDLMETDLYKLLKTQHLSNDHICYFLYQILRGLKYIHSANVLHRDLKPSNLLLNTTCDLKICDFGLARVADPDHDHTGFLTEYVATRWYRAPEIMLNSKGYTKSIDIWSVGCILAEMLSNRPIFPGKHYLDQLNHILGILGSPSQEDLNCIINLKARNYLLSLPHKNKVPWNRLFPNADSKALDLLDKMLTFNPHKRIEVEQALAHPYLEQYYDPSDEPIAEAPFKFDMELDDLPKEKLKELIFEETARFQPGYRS

`O=C(Nc1ccc(Oc2ccnc(NC(=O)N3CC(O)C3)c2)c(F)c1)c1cn(-c2cccnc2)nn1`: the inhibition entry is “inactive”.
